Literature values, collected in patent US6555228B2, “Bio-supportive medium, and methods of making and using the same” (priority 2000, dated 2003).

What was measured:
Torla (=Candida) utilis = conditions: pH 7, simple form
Ophyotrocha Labronica = conditions: 0.1 mg L^−1 of copper
Artemia salina = conditions: 1.0 mg L^−1 of copper
several dinoflagelates = conditions: until organic chelation occurs
[1] = test system: other classes of organisms
[2] = test system: Barnacles and zebra mussels
[3] = test system: Thalassiosira weissflogii; conditions: very low concentrations

Row | Structure (SMILES) | amount of copper toxic to Torla (=Candida) utilis (Torla (=Candida) utilis) | growth rate of Ophyotrocha Labronica (Ophyotrocha Labronica) | growth rate of Artemia salina (Artemia salina) | generally available copper with no measurable negative effect (most habitats) | effect of copper on dinoflagelates (several dinoflagelates) | lethal dose (some species) | concentration at which biolimiting occurs [1] | tolerance of copper [2] | effect of zinc ion activity on growth [3]
1 | [Cu+2] [copper] | 20 mg | decreased significantly | no change | below 0.62 mg/l | inhibit | 10 ppm | ≥ 40 ppm | can not tolerate any copper | –
2 | [Zn+2] [zinc] | – | – | – | – | – | – | – | – | growth limiting effect
